{"source": "paper PMC11964921", "about": "(npj Drug Discovery, 2025)", "key": {"[1]": {"system": "M. tuberculosis H37Rv-ΔcydAB", "design": "species or system mouse (Balb/cBy)", "settings": "mouse, in vivo"}, "[2]": {"system": "M. tuberculosis multi-drug-resistant clinical strains", "experiment": "microbe, parasite or virus in culture", "format": "cell-based", "settings": "for MIC: Mycobacterium tuberculosis"}}}
{"molecule": "CCc1nc2ccc(Cl)cn2c1C(=O)NCc1ccc(C2CC3(C2)CN(S(=O)(=O)C(F)(F)F)C3)cc1", "note": "[JNJ-2901]", "values": [{"measurement": "reduction in bacterial burden / lung CFU", "setting": "[1]", "value": 4, "unit": "log"}, {"measurement": "MIC", "setting": "[2]; all 18 clinical strains", "value": "< 1", "unit": "nM"}, {"measurement": "MIC", "setting": "[2]; all 18 clinical strains, Middlebrook 7H9 medium", "value": "≤ 0.5", "unit": "ng/mL"}, {"measurement": "MIC", "setting": "[2]; strain 661706043123, resistant to INH, PAS", "value": "≤ 0.5", "unit": "ng/mL"}, {"measurement": "MIC", "setting": "[2]; strain 661710016056, resistant to INH, S, PAS", "value": "≤ 0.5", "unit": "ng/mL"}, {"measurement": "MIC", "setting": "[2]; strain 661904036200, resistant to INH, PAS", "value": "≤ 0.5", "unit": "ng/mL"}, {"measurement": "MIC", "setting": "[2]; strain 661906047849, resistant to INH, RIF, S, PZA, ETH, PAS, EMB, CYC", "value": "≤ 0.5", "unit": "ng/mL"}, {"measurement": "MIC", "setting": "[2]; strain 661907010966, resistant to INH, RIF, S, PAS, EMB, PZA, CYC, AMK, KAN, CAP, ETH", "value": "≤ 0.5", "unit": "ng/mL"}, {"measurement": "MIC", "setting": "[2]; strain 661908012994, resistant to INH, RIF, S, PZA, PAS, ETH", "value": "≤ 0.5", "unit": "ng/mL"}, {"measurement": "MIC", "setting": "[2]; strain 661911031781, resistant to INH, RIF, S, PAS, CYC, ETH, KAN", "value": "≤ 0.5", "unit": "ng/mL"}, {"measurement": "MIC", "setting": "[2]; strain 661911038007, resistant to INH, RIF, S, PAS", "value": "≤ 0.5", "unit": "ng/mL"}, {"measurement": "MIC", "setting": "[2]; strain 662001006107, resistant to INH, RIF, PZA, S, PAS, CYC, ETH, FQL", "value": "≤ 0.5", "unit": "ng/mL"}, {"measurement": "MIC", "setting": "[2]; strain 662001039167, resistant to INH, RIF, S, PAS, EMB, PZA, CYC, KAN", "value": "≤ 0.5", "unit": "ng/mL"}, {"measurement": "MIC", "setting": "[2]; strain 662001071666, resistant to INH, RIF, S, PAS, PZA, EMB, ETH", "value": "≤ 0.5", "unit": "ng/mL"}, {"measurement": "MIC", "setting": "[2]; strain 662003052840, resistant to INH, EMB, PZA, S, CYC, PAS, ETH", "value": "≤ 0.5", "unit": "ng/mL"}, {"measurement": "MIC", "setting": "[2]; strain 662004032055, resistant to INH, RIF, S, PAS, ETH", "value": "≤ 0.5", "unit": "ng/mL"}, {"measurement": "MIC", "setting": "[2]; strain 662008015398, resistant to INH, RIF, S, PAS, EMB, PZA, ETH", "value": "≤ 0.5", "unit": "ng/mL"}, {"measurement": "MIC", "setting": "[2]; strain 662012006551, resistant to INH, PAS, PZA, ETH (LNZ geno)", "value": "≤ 0.5", "unit": "ng/mL"}, {"measurement": "MIC", "setting": "[2]; strain 662101040833, resistant to INH, RIF, PZA, S, PAS, EMB, ETH, KAN, CAP, AMK, CYC", "value": "≤ 0.5", "unit": "ng/mL"}, {"measurement": "MIC", "setting": "[2]; strain 662105041666, resistant to INH, RIF, S, PZA, EMB, FQL, ETH, CYC, PAS", "value": "≤ 0.5", "unit": "ng/mL"}, {"measurement": "MIC", "setting": "[2]; strain 662108038389, resistant to INH, RIF, S, PAS", "value": "≤ 0.5", "unit": "ng/mL"}, {"measurement": "concentration of growth inhibition (in words)", "setting": "[2]; clinical multidrug-resistant M. tuberculosis strains", "value": "sub-nanomolar"}]}
